Structures can show the parent of a compound that is named as a salt.
Row | melting point | SMILES
1 | 229 to 235 °C | Cc1ccc2c3c(ccc2n1)OCC(CNCCCCc1cn(C)c2ccc(F)cc12)O3 (stereo not shown) (as salt: hydrochloride) [Example 35, [4-(5-Fluoro-1-methyl-1H-indol-3-yl)-butyl]-(8-methyl-2,3-dihydro-[1,4]dioxino[2,3-f]quinolin-2-ylmethyl)-amine]
2 | 115 °C (dec.) | CCN(CCCc1c[nH]c2ccc(F)cc12)C[C@H]1COc2ccc3nc(C)oc3c2O1 (as salt: hydrochloride) [Example 36, Ethyl-[3-(5-fluoro-1H-indol-3-yl)-propyl]-(2-methyl-7,8-dihydro-[1,4]dioxino[2,3-g][1,3]benzoxazol-8-ylmethyl)-amine]
3 | 274 to 275 °C | Cc1ccc2c3c(ccc2n1)OCC(CN(C)CCCc1cn(C)c2ccc(F)cc12)O3 (stereo not shown) (as salt: hydrochloride) [Example 42, [3-(5-Fluoro-1-methyl-1H-indol-3-yl)-propyl]-methyl-(8-methyl-2,3-dihydro-[1,4]dioxino[2,3-f]quinolin-2-ylmethyl)-amine]
4 | 274 to 275 °C | Cc1ccc2c3c(ccc2n1)OCC(CN(C)CCCCc1c[nH]c2ccc(F)cc12)O3 (stereo not shown) (as salt: hydrochloride) [Example 43, [4-(5-Fluoro-1H-indol-3-yl)-butyl]-methyl-(8-methyl-2,3-dihydro-[1,4]dioxino[2,3-f]quinolin-2-ylmethyl}-amine]
5 | 275 to 276 °C | Cc1ccc2c3c(ccc2n1)OCC(CN(C)CCCCc1cn(C)c2ccc(F)cc12)O3 (stereo not shown) (as salt: hydrochloride) [Example 44, [4-(5-Fluoro-1-methyl-1H-indol-3-yl)-butyl]-methyl-(8-methyl-2,3-dihydro-[1,4]dioxino[2,3-f]quinolin-2-ylmethyl)-amine]
6 | 164 to 170 °C | CCCN(CCCc1c[nH]c2ccc(F)cc12)CC1COc2ccc3nc(C)ccc3c2O1 (stereo not shown) (as salt: hydrochloride) [Example 45, [3-(5-Fluoro-1H-indol-3-yl)-propyl]-(8-methyl-2,3-dihydro-[1,4]dioxino[2,3-f]quinolin-2-ylmethyl)-propyl-amine]

The remaining lines, values behind:

Row | SMILES | melting point
7 | Cc1ccc2c3c(ccc2n1)OCC(CNCCCn1ccc2ccc(F)cc21)O3 (stereo not shown) (as salt: hydrochloride) [Example 33, [3-(6-Fluoro-indol-1-yl)-propyl]-(8-methyl-2,3-dihydro-[1,4]dioxino[2,3-f]quinolin-2-ylmethyl)amine] | 154 to 156 °C
8 | Cc1ccc2c3c(ccc2n1)OCC(CN(C)CCCn1ccc2ccc(F)cc21)O3 (stereo not shown) (as salt: hydrochloride) [Example 34, [3-(6-Fluoro-indol-1-yl)-propyl]-methyl-(8-methyl-2,3-dihydro-[1,4]dioxino[2,3-f]quinolin-2-ylmethyl)-amine] | 75.9 to 83.7 °C
9 | Cc1ccc2c3c(ccc2n1)OCC(CNCCCCn1ccc2ccc(F)cc21)O3 (stereo not shown) (as salt: hydrochloride) [Example 38, [4-(6-Fluoro-indol-1-yl)-butyl]-(8-methyl-2,3-dihydro-[1,4]dioxino[2,3-f]quinolin-2-ylmethyl)-amine] | 122 to 127 °C
10 | Cc1ccc2c3c(ccc2n1)OCC(CNCCCn1ccc2c(F)cccc21)O3 (stereo not shown) (as salt: hydrochloride) [Example 46, [3-(4-Fluoro-indol-1-yl)-propyl]-(8-methyl-2,3-dihydro-[1,4]dioxino[2,3-f]quinolin-2-ylmethyl)-amine] | 203 to 206 °C
